Values joined by “and” are separate entries in the source; they are usually repeats but may differ in a detail not shown here. Equal values may be shown once. Active and inactive are the calls of the source.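 How the source made its calls: active means compounds giving half or more protection of infected cells from virus-caused growth loss, again on retest; inactive means the rest.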 Where a SMILES comes first, the peptide text is derived from it.
Tested on: CEM cells HIV-1 protection, formazan growth assay
Assay: NCI AIDS Antiviral Assay
Conditions: for IC50: measured here: growth of uninfected CEM cells
Method in brief: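 Human CEM cells, uninfected and HIV-1-infected, received five drug concentrations, and growth was read by soluble formazan assay. Compounds giving at least 50% protection were retested; reproducible 100% protection defined confirmed active.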

SMILES	EC50	IC50	outcome
CCN(CC)CC(=O)Nc1ccc(C(=O)OCC(C)C)cc1	> 200 µM	26.9 µM	–
N#Cc1ccc(-c2nc(C#N)c(N)o2)cc1	135 µM	> 200 µM	–
O=c1[nH]c2ccccc2c(O)c1O	> 200 µM	> 200 µM	–
CC(C)N(C(=O)C12C3C4C1C1C2C3C41C(=O)N(C(C)C)C(C)C)C(C)C (centres undefined)	> 72.4 µM	> 72.4 µM	–
Cc1ccc(C)n1CCN1CCNCC1	> 200 µM	162 µM	–
CC(C)(C)C1=CC(=N/N=c2\scc(-c3ccccc3)n2Cc2ccccc2)C=C(C(C)(C)C)C1=O	> 5.62 µM	> 5.62 µM	–
CC(C)CC(NC(=O)C(Cc1cnc[nH]1)NC(=O)C(CC(N)=O)NC(=O)C(NC(=O)C(CO)NC(=O)C(Cc1ccc(O)cc1)NC(=O)C(CO)NC(=O)C(C)NC(=O)C(CCCCN)NC(=O)C(N)CC(=O)O)C(C)O)C(=O)O (centres undefined) (H-DKASYSTNHL-OH; configuration not given here)	> 55 µM	> 55 µM	–
CCOC(=O)C(C(=O)OCC)=C1C=C(c2ccccc2)c2ccccc21	–	–	inactive
NC(CCC(=O)NC(CSSCCCCS(=O)O)C(=O)NCC(=O)O)C(=O)O (centres undefined)	–	–	inactive
CC1(C)OC(=O)N(c2ccccc2)C12C=Cc1cc([N+](=O)[O-])cc([N+](=O)[O-])c1O2 (centres undefined)	> 200 µM	117 µM	–
Nc1nc(N)c2ncn(CCOC(c3ccccc3)P(=O)(O)O)c2n1 (centres undefined)	> 200 µM	> 200 µM	–
CCOC(=O)CSc1c(C(=O)OCC)c(=O)n(-c2ccccc2)c(=S)n1-c1ccccc1	> 200 µM	31.6 µM	–
CCOC(=O)c1c(OCCCc2ccc(F)cc2)cc2ccc3ccccc3c2c1OCCCc1ccc(F)cc1	> 18.2 µM	> 18.2 µM	–
CCOC(=O)/C(=C(/N)C1OC(COC(c2ccccc2)(c2ccccc2)c2ccccc2)C2OC(C)(C)OC12)C1CC(=O)N(C)C1=O (centres undefined)	> 200 µM	11.7 µM	–
O=C1Nc2ccccc2N2C(=O)CCC12 (centres undefined)	> 1230 µM	617 µM	–
O=C1NC(=O)C2(CCCCCC2)N1	> 200 µM	> 200 µM	–
CCCCCCCCCCCCCCCC(=O)OCC(O)CO (centres undefined)	> 15.8 µM	> 15.8 µM	–
COc1ccc(-c2cc(-c3ccccc3)nc(N)c2-c2ccc3ccccc3c2)cc1	> 200 µM	2.45 µM	–
Cc1ccc(-n2c(O)c3c(N)n[nH]c3c(C#N)c2=O)cc1	155 µM	> 200 µM	–
O=C(O)C1=C(O)C(C(=O)O)C23CCCCCCCCCCC12C(C(=O)O)C(O)=C3C(=O)O (centres undefined)	–	–	inactive
N#Cc1c(N2CCCC2)nsc1Nc1ccccc1	> 200 µM	> 200 µM	–
CC(C)CCn1nc(N)c2nc3ccccc3nc21	> 200 µM	112 µM	–

SMILES	EC50	IC50	outcome
Cc1ccc2c(c1)CC1(C2)Cc2ccc(C)cc2C1=O (centres undefined)	> 200 µM	23.4 µM	–
O=C1C2C3C=C4c5ccccc5N(c5ccccc5)C4(C2C(=O)N1c1ccccc1)C1C(=O)N(c2ccccc2)C(=O)C31 (centres undefined)	–	–	inactive
O=C1CCCSCCCC(=O)CCCSCCC1	> 34.7 µM	> 34.7 µM	–
NC(=NCC(=O)O)c1ncn(C2OC(CO)C(O)C2O)n1 (centres undefined)	–	–	inactive
O=C(O)c1ccc(-n2[se]c3ccccc3c2=O)cc1	7.24 µM	20.4 µM	–
C=CCC(C(=O)Nc1cccc2[nH]cnc12)C(=O)OCC (centres undefined)	> 200 µM	195 µM	–
COc1ccc(Nc2cnc3cc(N)ccc3n2)cc1OC	> 603 µM	42.7 µM	–
COc1ccc(/C=C\c2cc(OC)c(OC)c(OC)c2)cc1OC(=O)CC(N)C(=O)O (centres undefined)	> 0.2 µM	0.000309 µM	–
O=C(OC[C@H]1OCC(=O)C2(OC(=O)c3ccccc3)C3C=CC(C3)C12)c1ccccc1 (some centres undefined)	–	–	inactive
NNCCc1n[nH]c(=O)n1N	> 200 µM	> 200 µM	–
O=C(Nn1c(=S)[nH][nH]c1=S)c1ccccc1	> 200 µM	> 200 µM	–
CSc1cnc2ccccc2c1Sc1cn(C)c2ccccc2c1=O	> 37.2 µM	31.6 µM	–
C=C(C)C12CC3CC/C(=N/O)C(C1)C3(N1CCOCC1)C/C2=N/O (centres undefined)	> 200 µM	> 200 µM	–
CSC12c3cc(C)n(-c4ccccc4)c3CC(C)(C)CN1C(=O)C2Oc1ccccc1 (centres undefined)	> 200 µM	16.2 µM	–
O=C(O)CN(CC(=O)O)C1CCCCC1N(CC(=O)O)CC(=O)NCCN=C=S (centres undefined)	> 200 µM	> 200 µM	–
N#Cc1[nH]c(=S)[nH]c1N	> 200 µM	117 µM	–
CCN(CC)C(=O)CCn1cc(F)c(=O)[nH]c1=O	> 977 µM	> 977 µM	–
CCOC(=O)c1ccc(NC(NC(=O)CC)(C(F)(F)F)C(F)(F)F)cc1	> 200 µM	24.5 µM	–
O=C(Oc1ccccc1C(=O)O)c1ccccc1O	> 200 µM	> 200 µM	–
COc1ccc(SSc2ccc(OC)n[n+]2[O-])[n+]([O-])n1	> 200 µM	1 µM	–
CCC(=O)CC(=O)CCC(=O)Nc1cc(C)ccc1C	–	–	inactive
Cc1ccc(S(=O)(=O)/N=S(\C)c2ccc(Cl)cc2)cc1 (centres undefined)	> 759 µM	178 µM	–

SMILES	EC50	IC50	outcome
NS(=O)(=O)c1ccc(CNC(=O)c2ccccc2SC(=O)CCCC[n+]2ccccc2)cc1	1.38 µM and 0.759 µM	28.2 µM and 11.7 µM	–
CCCCCc1c(CCCC)c(=O)[nH]c2cc(CNCC(OC)OC)ccc12	> 200 µM	11 µM	–
CN1C/C(=C\c2cccs2)C2=NN(c3ccccc3)C(c3cccs3)C2C1 (centres undefined)	> 200 µM	10.7 µM	–
Nc1nc(Cl)cc(NCC2(CO)CC=CC2)n1	> 200 µM	> 200 µM	–
CC1=NN2C(=N)/C(=C/c3ccc(F)cc3)C(=O)N=C2S1	> 200 µM	> 200 µM	–
O=C(CN(C(=O)OC12CC3CC(CC(C3)C1)C2)C(=O)OC12CC3CC(CC(C3)C1)C2)Oc1ccc([N+](=O)[O-])cc1	> 200 µM	9.77 µM	–
NC(=S)N/N=C/c1ccc(O)cn1	> 661 µM	1.12 µM	–
CC(C)N(/C(F)=N\C(=O)Nc1ccccc1C(F)(F)F)C(C)C	> 200 µM	38.9 µM	–
COC1OC2COc3ccccc3OC2C2C1N2C(N)=O (centres undefined)	–	–	inactive
Clc1ccc(NCc2nnc(CCCCCCCCc3nnc(CNc4ccc(Cl)cc4)o3)o2)cc1	> 200 µM	> 200 µM	–
CN(C)C1C(=O)C(C(N)=O)=C(O)C2(O)C(=O)C3=C(O)c4c(O)cccc4C(C)(O)C3C(O)C12 (centres undefined)	> 263 µM	95.5 µM	–
CC1SC2(CC3CCC2(C)C3(C)C)OC1=O (centres undefined)	> 20.9 µM	> 20.9 µM	–
CC1(C23CC4CC(CC(C4)C2)C3)n2c(=O)n(-c3ccccc3)c(=O)n2C1(C)C12CC3CC(CC(C3)C1)C2 (centres undefined)	> 50.1 µM	> 50.1 µM	–
O=Nc1ccc(O)c2ncccc12	–	–	inactive
COc1ccc(NC2Oc3cc4c(cc3C(c3cc(OC)c(O)c(OC)c3)C2C)OCO4)cc1 (centres undefined)	> 200 µM	3.63 µM	–
O=C(Nc1ccccc1)c1cc(S(=O)(=O)n2cc[nH]c2=O)c(S)cc1Cl	> 200 µM	> 200 µM	–
CC1(C)OC2OC(C(O)COC(=O)c3ccccc3)C(Cl)C2O1 (centres undefined)	> 219 µM	151 µM	–
O=C(O)c1cscc1Cc1ccccc1	> 200 µM	> 200 µM	–
CN1C2CCC1CC(OC(=O)C1CCC(C(=O)OC3CC4CCC(C3)N4C)(c3ccccc3)c3ccccc31)C2 (centres undefined)	> 200 µM	6.46 µM	–
CCOC(=O)c1ccc(CSc2ccccc2C(=O)OCC)cc1	> 3.02 µM	> 3.02 µM	–
